# In patent US20230279482A1, “COMPOSITIONS, METHODS AND USES FOR QUANTIFYING TRANSCRIPTION AND BIOSENSING OF SMALL MOLECULES USING A NOVEL TYPE VI CRISPR-CAS ASSAY” (THE REGENTS OF THE UNIVERSITY OF COLORADO, A BODY CORPORATE, priority 2020, published 2023):
# What was measured:
# [1] = test system: serotonin riboswitch (P1 aptamer in expression platform pbuE′); assay: SPRINT assay with synthetic serotonin riboswitch; type: biochemical; conditions: FIG. 4D
# Description: (§1) SPRINT reactions. Pentauridine RNA oligonucleotides were labeled with carboxyfluorescein (FAM) or TEX 615 at the 5′-end and with Iowa Black FQ at the 3′-end. Fluorescence measurements were taken at wavelengths 490/525 nm (excitation/emission) when the FAM fluorophore was used. In reactions with flavin-containing ligands, TEX-labeled RNA oligos were used at the wavelengths 576/615 (excitation/emission). Fluorescence measurements were taken every 5 minutes.
# (§2) For exemplary SPRINT assays, a master mix was first prepared and then mixed with the remaining reaction reagent components to yield a final reaction volume of 30 μL; fluorescent readings of the entire reaction volume were performed in Corning 384 Flat Bottom Black Polystyrol plates. This master mix (SPRINT buffer, 10×), for assays contemplated herein can include, but is not limited to: 700 mM Tris-HCl, pH 8.0, 700 mM NaCl, 1 mM EDTA, 140 mM β-mercaptoethanol, and 25 mM MgCl2. Aliquots of an exemplary 10× SPRINT buffer were stored at −20° C. and not allowed to undergo more than 10 freeze-thaw cycles.
# (§3) The SELEX method (previously described) has been used to select the P1 aptamer that binds to the neurotransmitter serotonin (i.e. 5-hydroxytryptamine) and this aptamer was incorporated into the expression platform pbuE′ to generate a riboswitch for serotonin.
# FMN riboswitch = conditions: cited from earlier work
# FMN riboswitch ribB = conditions: E. coli ribB; cited from earlier work
# [2] = test system: flavin mononucleotide (FMN) riboswitch ribD/pbuE*7U; assay: SPRINT assay with FMN riboswitch; type: biochemical, B. subtilis; conditions: 10 mM MgCl2, FIG. 4B
# Description: as §1, §2
# Initially, the observed ligand-dependent induction of the FMN riboswitch was very low. To improve this, the magnesium concentration in the SPRINT reaction was increased. […] Therefore, SPRINT reactions with the ribD/pbuE*7U riboswitch were conducted at 10 mM MgCl2 in these exemplary studies.
# [3] = biological target: T1, purine nucleoside phosphorylase (hPNP) (Homo sapiens, UniProt P00491); assay: Enzyme-coupled SPRINT assay (inosine to hypoxanthine, guanine riboswitch xpt/pbuE*6U); type: biochemical
# T1 sequence (P00491 1-289): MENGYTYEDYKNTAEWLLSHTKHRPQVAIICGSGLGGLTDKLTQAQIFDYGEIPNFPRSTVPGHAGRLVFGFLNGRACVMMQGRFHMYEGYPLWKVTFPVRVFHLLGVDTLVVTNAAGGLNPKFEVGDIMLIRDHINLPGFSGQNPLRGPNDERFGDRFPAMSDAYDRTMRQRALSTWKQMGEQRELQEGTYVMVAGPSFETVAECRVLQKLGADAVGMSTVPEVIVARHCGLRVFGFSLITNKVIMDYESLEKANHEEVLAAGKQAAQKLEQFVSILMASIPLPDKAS
# From the text: As part of the human purine metabolism, the enzyme purine nucleoside phosphorylase (hPNP) can catalyze the phosphorylation of the ribose moiety of various purines and thereby remove the sugar from the nucleobase. The conversion of deoxyguanosine to deoxyguanine by hPNP can be inhibited with nucleoside analogs such as Immucillin-H (forodesine) which leads to accumulation of deoxyguanosine and consequent apoptosis in activated T-cells. Therefore, hPNP is an important drug target for the treatment for example, of leukemia, arthritis, multiple sclerosis and transplant rejection.
# In these systems, the conversion of inosine to hypoxanthine via hPNP was coupled to the SPRINT reaction in a one-batch buffer system using the guanine riboswitch xpt/pbuE*6U (FIG. 9D).
# [4] = test system: adenine riboswitch pbuE/pbuE‡; assay: SPRINT assay with adenine riboswitch; type: biochemical; conditions: FIG. 3D
# Description: as §1
# as §2, with “Aliquots of an exemplary 10× SPRINT buffer were stored at −20° C. and not allowed to undergo more than 10 freeze-thaw cycles.” left out
# The transcriptional response of the well-characterized guanine riboswitch xpt/pbuE*6U and the adenine-responsive riboswitch pbuE/pbuE‡ to their respective ligand was measured by SPRINT and the radiolabeling method. The radiolabeling method used ^32P-labeled ATP for single turnover transcription assays, subsequent separation of the transcripts on an acrylamide gel, exposure to a phospho screen and quantification of the band intensities. […]
# [5] = test system: guanine riboswitch xpt/pbuE*6U; assay: SPRINT compound screen on guanine riboswitch; type: biochemical; conditions: 10 μM and 1 mM for most compounds, solvent signal subtracted, FIG. 9A
# Description: Briefly, the transcriptional response of the guanine riboswitch xpt/pbuE*6U to 30 different compounds was measured at two different concentrations each (FIG. 9A and FIG. 10). The concentrations used were 10 μM and 1 mM for most compounds. The signal that was obtained from control experiments with the solvents DMSO or water was subtracted from all values.
# [6] = test system: transcription and Cas13 reaction; assay: Effect of agents on fluorescent signal of one-batch and two-batch assays; type: biochemical; conditions: FIGS. 6D-6F
# Description: In another exemplary method, two-batch methods included, 30 μL in vitro transcription reactions carried out as described above but without addition of Cas13a, crRNA, labeled RNA oligos, RNase inhibitor. Then, the reaction was washed three times with 500 μL ddH2O using an centrifugal filter (0.5 ml, 10 kDa cutoff). After concentrating the solution to approximately 20 μL, aliquots of 6 μL were taken and added to a 24 μL of a SHERLOCK reaction (described below).
# as §3
# [7] = test system: SPRINT assay without riboswitch (constitutively transcribed Cas13a target); assay: SPRINT control screen with constitutive promoter template (PAINS identification); conditions: constitutive promoter template, FIG. 9B
# Description: The master mix was gently mixed by pipetting up and down and incubated at 37° C. for 15 minutes to allow binding of crRNA to Cas13a protein and the microwell plate was prepared by adding 3 μL of 10× ligand to the wells. The reaction was initiated by addition of rNTPs to the master mix to a concentration of 20 μM and then 27 μL of the complete master mix were added to each well and pipetted up and down to mix with the ligand in the wells. The plate was covered with an optical adhesive film to prevent evaporation of the sample while taking fluorescence measurements in a plate reader that was preheated to 37° C.
# [8] = test system: S-adenosylmethionine (SAM)-responsive riboswitch yitJ/pbuE*6U; assay: SPRINT assay with SAM riboswitch; type: biochemical; conditions: FIG. 4A
# Description: as §1, §2
# In another exemplary method, to test the versatility of SPRINT, small-molecule dependent transcriptional regulation of various riboswitches was examined. […]
# metE riboswitch = assay: SPRINT assay with native metE OFF riboswitch (with heparin, single turnover); type: biochemical, B. subtilis; conditions: OFF switch, heparin added, FIG. 7B; read-out: T50 value (reduction of transcriptional rate)
# Description: For amplification of the native metE riboswitch from the genome, the following protocol was used: Colony PCR was performed, using the oligos “metE_fwd” (SEQ ID NO: 13) and “metE_rev” (SEQ ID NO: 14) at Tm=64° C. with Q5 DNA polymerase. The constant 5′ and 3′ parts of the SPRINT constructs were also amplified via PCR reactions, using any plasmid with a complete SPRINT sequence as template. The 5′ constant part was amplified with oligos “InsulatorOligo_fwd” (SEQ ID NO:1) and “e.coliProm_rev” (SEQ ID NO: 8). The 3′ constant part was amplified with oligos “RiboswitchBB_fwd” (SEQ ID NO: 7) and “ssDNA1_rev” (SEQ ID NO: 2). […] The PCR product was purified, quantified and used for a SPRINT reaction.
# In another exemplary method, certain riboswitches described herein were re-engineered for certain properties such as wide dynamic range and a ligand-induced “ON”. […] Initially, measurements at intermediate concentrations of SAM were difficult to quantify because the high rate of transcription from the B. subtilis metE OFF-switch required very high concentrations of SAM to repress the signal (FIG. 8). […]
# [9] = biological target: zinc-responsive transcription factor smtB (Synechococcus elongatus, UniProt P30340); assay: biochemical
# zinc-responsive transcription factor smtB, sequence (P30340 whole entry): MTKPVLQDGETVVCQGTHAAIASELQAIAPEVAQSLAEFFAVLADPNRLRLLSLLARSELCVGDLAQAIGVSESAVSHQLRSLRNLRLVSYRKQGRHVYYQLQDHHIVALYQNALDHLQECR
# Description: In other exemplary methods, reactions with allosteric transcription factors (aTFs), ROSALIND reagent buffer (10× buffer containing, for assays contemplated herein, but not limited to: 400 mM Tris-HCl, pH 8.0, 200 mM NaCl, 20 mM spermidine, 100 mM DTT and 80 mM MgCl2) were used. The buffer was prepared fresh or stored as single-use aliquots at −80° C. […] The final concentration of the aTF monomers was either 2.5 μM tetR or 10 μM smtB. The master mix was incubated for 15 minutes at 37° C. which allows the aTFs to bind to the operator sequence.
# In another exemplary method, bacterial transcription can be regulated by allosteric transcription factors (aTFs), such as activators or repressors, which have previously been used for small molecule detection. Another system (“ROSALIND”) enabled rapid detection of compounds via aTFs. […] The ROSALIND buffer system differs from the SPRINT or SHERLOCK buffer. Therefore, it was tested whether aTF-based ROSALIND reactions could be integrated with the Cas13a-based detection method. To simplify the system, the inorganic pyrophosphatase (IPPase) enzyme was first removed from the ROSALIND system. IPPase was used in transcription reactions to degrade pyrophosphate which was a reaction product of the RNA polymerase and can inhibit the reaction. […] Adaptions included reducing the concentrations of rNTP from 2.85 mM to 40 μM, DNA template from 25 to 15 nM, and T7 RNAP from 10 to 6.7 ng/μL.
# The responses of the de-repressors tetR and smtB were measured with SPRINT.
smiles,measurement,setting,value
NCCc1c[nH]c2ccccc12 [tryptamine],discrimination by serotonin riboswitch,[1],discriminated specifically against
O=c1cc(-c2cccs2)nc([C@H]2CCCN(Cc3cn(-c4ncccn4)cn3)C2)[nH]1 [ribocil-C],agonism of FMN riboswitch from F. nucleatum,FMN riboswitch,strong agonist
same,agonism of FMN riboswitch ribB,FMN riboswitch ribB,strong agonist
same,response / activation of FMN riboswitch,[2],no observable activation
O=c1[nH]cnc2c([C@@H]3N[C@H](CO)[C@@H](O)[C@H]3O)c[nH]c12 [Immucillin-H],effect on hPNP enzymatic activity,"[3]; inhibitor at 100-fold lower concentration than substrate inosine, FIG. 9E",significant reduction in the enzymatic activity
Nc1nc2nc[nH]c2c(=O)[nH]1 [guanine],response of adenine riboswitch to ligand,[4],not
same,transcriptional response at low and high concentration,[5],equally strong transcriptional activation at low and high concentrations
"Cc1cc2nc3c(=O)[nH]c(=O)nc-3n(C[C@H](O)[C@H](O)[C@H](O)COP(=O)(O)O)c2cc1C [FMN, flavin mononucleotide]",EC50,[2]; read-out: T50 value (ligand concentration at half-maximal activation of transcription),~1010 nM
Nc1ncnc2nc[nH]c12 [adenine],response of adenine riboswitch to ligand,[4],responded efficiently
"Cc1cc2nc3c(=O)[nH]c(=O)nc-3n(C[C@H](O)[C@H](O)[C@H](O)COP(=O)(O)OP(=O)(O)OC[C@H]3O[C@@H](n4cnc5c(N)ncnc54)[C@H](O)[C@@H]3O)c2cc1C [flavin adenine dinucleotide (FAD), flavin adenine dinucleotide]",response / activation of FMN riboswitch,[2],low-affinity response
N[C@@H](Cc1c[nH]c2ccc(O)cc12)C(=O)O [5-hydroxytryptophan],inhibitory effect on transcription and Cas13 reaction,[6],did not cause inhibitory effects
CNc1ncnc2nc[nH]c12 [N6-methyladenine],transcriptional response at low and high concentration,[5],did not cause a transcriptional response at low or high concentrations
CNc1nc2nc[nH]c2c(=O)[nH]1 [N2-methylguanine],transcriptional response at low and high concentration,[5],only caused a strong transcriptional response at high concentrations
same,interference with SPRINT assay (PAINS),[7],interfering compounds
OC[C@H]1O[C@@H](n2cnc3c(O)ncnc32)[C@H](O)[C@@H]1O [inosine],hypoxanthine production by hPNP on titration,[3]; FIG. 9F,concentration-dependent increase
Nc1nc2c(c(=O)[nH]1)CC=N2 [7-deazaguanine],transcriptional response at low and high concentration,[5],some activation of transcription at low concentrations but no or reduced activation at high concentrations
same,interference with SPRINT assay (PAINS),[7],interfering compounds
"C[S+](CC[C@H](N)C(=O)O)C[C@H]1O[C@@H](n2cnc3c(N)ncnc32)[C@H](O)[C@@H]1O (some centres unmarked) [SAM, S-adenosylmethionine]",response of SAM riboswitch to ligand,[8],responsive
same,EC50,metE riboswitch,~1000 nM
[Zn+2] [zinc],EC50,[9],4800 ± 300 nM
same,selectivity versus control copper,[9]; FIG. 7C,high selectivity
"NCCc1c[nH]c2ccc(O)cc12 [serotonin, 5-hydroxytryptamine]",inhibitory effect on transcription and Cas13 reaction,[6],specifically inhibited the transcription and also Cas13 reaction
same,EC50,[1]; read-out: T50 value,5000 ± 3000 nM
